Measurements as given in ChEMBL document CHEMBL5579882, “Synthesis and Photodynamic Activities of Pyridine- or Pyridinium-Substituted Aza-BODIPY Photosensitizers” (J Med Chem, 2024).
Activity calls are given as the source filed them. The rule behind the calls is not given here.

Experiments:
[1] = Dark cytotoxicity against human HeLa cells assessed as inhibition of cell viability incubated for 3 hrs by CCK8 assay; type: toxicity, cell-based
HeLa [2] = assay: Phototoxicity against human HeLa cells assessed as inhibition of cell viability preincubated for 3 hrs followed by photo-irradiation of 54 J/cm2 for 24 hrs by CCK8 assay; type: functional, cell-based; conditions: light or radiation study
HepG2 = assay: Phototoxicity against human HepG2 cells assessed as inhibition of cell viability preincubated for 3 hrs followed by photo-irradiation of 54 J/cm2 for 24 hrs by CCK8 assay; type: functional, cell-based; conditions: HepG2, light or radiation study
[3] = Dark cytotoxicity against human HepG2 cells assessed as inhibition of cell viability incubated for 3 hrs by CCK8 assay; type: toxicity, cell-based
HeLa [4] = assay: Antitumor activity against human HeLa cells xenografted in nude BALB/c nu/nu mouse assessed as decrease in tumor growth at 2.5 umol/kg, iv with light irradiation of 30 J/cm2 for 1 hr measured after 24 hrs; type: functional, organism-based; conditions: dose 2.5 µmol/kg, time 25.0 hrs
[5] = Drug uptake in human HeLa cells assessed as increase in red fluorescence signal at 5 uM incubated for 3 hrs by fluorescence imaging based analysis; type: ADME, cell-based
[6] = Drug uptake in human HeLa cells assessed as fold increase in fluorescence intensity at 5 uM incubated for 3 hrs by fluorescence imaging based analysis relative to control; type: ADME, cell-based
HeLa [7] = assay: Induction of cell death in human HeLa cells assessed as increase in bright red signal at 400 nM incubated for 3 hrs followed by light irradiation of 54 J/cm2 in presence of DFO inhibitor by Calcein-AM/PI staining based analysis; type: functional
[8] = Toxicity in nude BALB/c nu/nu mouse bearing human HeLa cells assessed as pathological change in lung at 2.5 umol/kg, iv with light irradiation of 30 J/cm2 for 1 hr measured for 24 hrs by H and E staining based analysis; type: organism-based; conditions: in vivo, 25 h, dose 2.5 µmol/kg
[9] = Biodistribution in lung of nude BALB/c nu/nu mouse bearing human HeLa cells at 2.5 umol/kg, iv measured for 3 hrs by IVIS analysis; type: ADME, organism-based; conditions: in vivo, dose 2.5 µmol/kg
HeLa [10] = assay: Induction of lipid peroxidation in human HeLa cells assessed as increase in green fluorescence with a light dose of 54 J/cm2 at 100 to 400 nM incubated for 3 hrs by BODIPY 581/591 C11 dye based analysis; type: functional, cell-based; conditions: dose 100-400 nM
HeLa [11] = assay: Antitumor activity against human HeLa cells xenografted in nude BALB/c nu/nu mouse assessed as pathological damage in tumor at 2.5 umol/kg, iv with light irradiation of 30 J/cm2 for 1 hr measured after 24 hrs by H and E staining based analysis; type: functional, organism-based; conditions: dose 2.5 µmol/kg, time 25.0 hrs
[12] = Drug uptake in lipid droplet of human HeLa cells at 5 uM incubated for 3 hrs by BODIPY 493/503 dye based analysis; type: ADME, subcellular
HeLa [13] = assay: Induction of cell death in human HeLa cells under dark condition upto 400 nM incubated for 3 hrs by Calcein-AM/PI staining based analysis; type: functional
[14] = Toxicity in nude BALB/c nu/nu mouse bearing human HeLa cells assessed as steady body weight increment at 2.5 umol/kg, iv with light irradiation at 30 J/cm2 for 1 hr measured for 24 hrs; type: organism-based; conditions: in vivo, 25 h, dose 2.5 µmol/kg
[15] = Biodistribution in liver of nude BALB/c nu/nu mouse bearing human HeLa cells at 2.5 umol/kg, iv measured for 3 hrs by IVIS analysis; type: ADME, organism-based; conditions: in vivo, dose 2.5 µmol/kg
[16] = Toxicity in nude BALB/c nu/nu mouse bearing human HeLa cells assessed as pathological change in spleen at 2.5 umol/kg, iv with light irradiation of 30 J/cm2 for 1 hr measured for 24 hrs by H and E staining based analysis; type: organism-based; conditions: in vivo, 25 h, dose 2.5 µmol/kg
HeLa [17] = assay: Induction of ROS generation in human HeLa cells without light irradiation at 200 nM incubated for 3 hrs by H2DCFDA staining based analysis; type: functional, cell-based
[18] = Biodistribution in skin of nude BALB/c nu/nu mouse bearing human HeLa cells at 2.5 umol/kg, iv measured for 3 hrs by IVIS analysis; type: ADME, organism-based, Skin of body; conditions: in vivo, dose 2.5 µmol/kg
[19] = Toxicity in nude BALB/c nu/nu mouse bearing human HeLa cells assessed as drug tolerance at 2.5 umol/kg, iv with light irradiation of 30 J/cm2 for 1 hr measured for 24 hrs; type: organism-based; conditions: in vivo, 25 h, dose 2.5 µmol/kg
HeLa [20] = assay: Induction of cell death in human HeLa cells assessed as increase in bright red signal at 400 nM incubated for 3 hrs followed by light irradiation of 54 J/cm2 by Calcein-AM/PI staining based analysis; type: functional
[21] = Biodistribution in spleen of nude BALB/c nu/nu mouse bearing human HeLa cells at 2.5 umol/kg, iv measured for 3 hrs by IVIS analysis; type: ADME, organism-based; conditions: in vivo, dose 2.5 µmol/kg
[22] = Drug uptake in lysosome of human HeLa cells at 5 uM incubated for 3 hrs by LysoTracker Green DND-26 dye based analysis; type: ADME, subcellular
HeLa [23] = assay: Induction of ROS generation in human HeLa cells assessed as increase in green fluorescence incubated for 3 hrs followed by light irradiation of 54 J/cm2 by H2DCFDA staining based analysis; type: functional, cell-based; conditions: dose 25-200 nM
[24] = Drug uptake in endoplasmic reticulum of human HeLa cells at 5 uM incubated for 3 hrs by ER-Tracker Green dye based analysis; type: ADME, subcellular
[25] = Toxicity in nude BALB/c nu/nu mouse bearing human HeLa cells assessed as pathological change in heart at 2.5 umol/kg, iv with light irradiation of 30 J/cm2 for 1 hr measured for 24 hrs by H and E staining based analysis; type: organism-based; conditions: in vivo, 25 h, dose 2.5 µmol/kg
HeLa [26] = assay: Induction of cell death in human HeLa cells assessed as increase in bright red signal at 400 nM incubated for 3 hrs followed by light irradiation of 54 J/cm2 in presence of Fer-1 inhibitor by Calcein-AM/PI staining based analysis; type: functional
[27] = Drug uptake in mitochondria of human HeLa cells at 5 uM incubated for 3 hrs by MitoTracker Green FM dye based analysis; type: ADME
[28] = Toxicity in nude BALB/c nu/nu mouse bearing human HeLa cells assessed as pathological change in kidney at 2.5 umol/kg, iv with light irradiation of 30 J/cm2 for 1 hr measured for 24 hrs by H and E staining based analysis; type: organism-based; conditions: in vivo, 25 h, dose 2.5 µmol/kg
HeLa [29] = assay: Biodistribution in human HeLa cells xenografted in nude BALB/c nu/nu mouse at 2.5 umol/kg, iv measured for 3 hrs by IVIS analysis; type: ADME, organism-based; conditions: in vivo, dose 2.5 µmol/kg
[30] = Biodistribution in kidney of nude BALB/c nu/nu mouse bearing human HeLa cells at 2.5 umol/kg, iv measured for 3 hrs by IVIS analysis; type: ADME, organism-based; conditions: in vivo, dose 2.5 µmol/kg
HeLa [31] = assay: Induction of cell death in human HeLa cells assessed as increase in bright red signal at 400 nM incubated for 3 hrs followed by light irradiation of 54 J/cm2 in presence of Lip-1 inhibitor by Calcein-AM/PI staining based analysis; type: functional
[32] = Toxicity in nude BALB/c nu/nu mouse bearing human HeLa cells assessed as pathological change in liver at 2.5 umol/kg, iv with light irradiation of 30 J/cm2 for 1 hr measured for 24 hrs by H and E staining based analysis; type: organism-based; conditions: in vivo, 25 h, dose 2.5 µmol/kg

In the case of `COc1ccc(-c2c(I)c(-c3ccc[n+](C)c3)c3n2[B-](F)(F)[N+]2=C4C(=C(c5ccccc5)C2=N3)CCc2cc(OC)ccc24)cc1`, the IC50 at 3 h [1] is reported as 1200 nM and the IC50 (HeLa [2]) is reported as 6 nM.

With `COc1ccc(C2=[N+]3C(=Nc4c(-c5cccnc5)c5c(n4[B-]3(F)F)-c3ccc(OC)cc3CC5)C(c3ccccc3)=C2I)cc1` the IC50 (HepG2) was 7.5 nM, the IC50 at 3 h [1] was 37400 nM and the IC50 (HeLa [2]) was 19.1 nM. The IC50 at 3 h [3] was > 50000 nM.

In the case of `COc1ccc(-c2c(I)c(-c3ccncc3)c3n2[B-](F)(F)[N+]2=C4C(=C(c5ccccc5)C2=N3)CCc2cc(OC)ccc24)cc1`, the IC50 (HepG2) is reported as 11.1 nM, the IC50 at 3 h [1] is reported as > 50000 nM and the IC50 (HeLa [2]) is reported as 6.1 nM. The IC50 at 3 h [3] was > 50000 nM.

With `COc1ccc(C2=[N+]3C(=Nc4c(-c5ccccc5)c5c(n4[B-]3(F)F)-c3ccc(OC)cc3CC5)C(c3ccccc3)=C2I)cc1` the IC50 at 3 h [1] was > 50000 nM, the Activity (HeLa [4]) was “Active” and the Drug uptake [5] was “Active”. For the same compound, the IC50 at 3 h [3] was > 50000 nM.

With `COc1ccc(-c2c(I)c(-c3cccnc3)c3n2[B-](F)(F)[N+]2=C4C(=C(c5ccccc5)C2=N3)CCc2cc(OC)ccc24)cc1` the “fold change (FC)” value [6] was 6, the Activity (HeLa [7]) was “Active” and the Activity [8] was “Non-Toxic”. The IC50 (HepG2) was 6.9 nM, the Drug uptake [9] was “Active” and the Activity (HeLa [10]) was “Active”. The Activity (HeLa [11]) was “Active”, the Drug uptake [12] was “Active” and the IC50 at 3 h [1] was > 50000 nM. For the same compound, the Activity (HeLa [13]) was “inactive”, the IC50 (HeLa [2]) was 10.4 nM and the Activity [14] was “Non-Toxic”. The Drug uptake [15] was “Active”, the Activity [16] was “Non-Toxic” and the Activity (HeLa [17]) was “inactive”. The Drug uptake [18] was “Not Active”, the Activity [19] was “Non-Toxic” and the Activity (HeLa [20]) was “Active”. For the same compound, the Activity (HeLa [4]) was “Active”, the Drug uptake [21] was “Active” and the Drug uptake [22] was “Not Active”. The Activity (HeLa [23]) was “Dose-Dependent Effect”, the Drug uptake [24] was “Not Active” and the Activity [25] was “Non-Toxic”. For the same compound, the Activity (HeLa [26]) was “inactive”, the Drug uptake [27] was “Not Active” and the Activity [28] was “Non-Toxic”. For the same compound, the Drug uptake (HeLa [29]) was “Active”, the IC50 at 3 h [3] was > 50000 nM and the Drug uptake [30] was “Active”. The Activity (HeLa [31]) was “inactive” and the Activity [32] was “Non-Toxic”.

In the case of `COc1ccc(-c2c(I)c(-c3cc[n+](C)cc3)c3n2[B-](F)(F)[N+]2=C4C(=C(c5ccccc5)C2=N3)CCc2cc(OC)ccc24)cc1`, the IC50 at 3 h [1] is reported as 3300 nM and the IC50 (HeLa [2]) is reported as 129 nM.

In the case of `C=Cc1c(C)c2cc3nc(c(CC(=O)O)c4[nH]c(cc5nc(cc1[nH]2)C(C)=C5CC)c(C)c4C(=O)O)[C@@H](CCC(=O)O)[C@@H]3C` [CHLORIN E6], the IC50 at 3 h [1] is reported as > 50000 nM, the Activity (HeLa [4]) is reported as “inactive” and the IC50 at 3 h [3] is reported as > 50000 nM.

`COc1ccc(C2=[N+]3C(=Nc4c(-c5ccncc5)c5c(n4[B-]3(F)F)-c3ccc(OC)cc3CC5)C(c3ccccc3)=C2I)cc1` showed an IC50 (HepG2) of 35.8 nM, an IC50 at 3 h [1] of 37200 nM and an IC50 (HeLa [2]) of 33.9 nM. The IC50 at 3 h [3] was > 50000 nM.

Compound `COc1ccc(-c2c(I)c(-c3ccccn3)c3n2[B-](F)(F)[N+]2=C4C(=C(c5ccccc5)C2=N3)CCc2cc(OC)ccc24)cc1` has an IC50 (HepG2) of 7.2 nM, an IC50 at 3 h [1] of 17900 nM and an IC50 (HeLa [2]) of 12.1 nM. For the same compound, the IC50 at 3 h [3] was > 50000 nM.

For `COc1ccc(C2=[N+]3C(=Nc4c(-c5ccncc5)c(I)c(-c5ccc(OC)cc5)n4[B-]3(F)F)C(c3ccccc3)=C2)cc1`, the IC50 at 3 h [1] was 20600 nM and the IC50 (HeLa [2]) was 50.1 nM.

Compound `COc1ccc(C2=[N+]3C(=Nc4c(-c5cccnc5)c(I)c(-c5ccc(OC)cc5)n4[B-]3(F)F)C(c3ccccc3)=C2)cc1` has an IC50 at 3 h [1] of 17100 nM and an IC50 (HeLa [2]) of 42.9 nM.

Work on `COc1ccc(C2=[N+]3C(=Nc4c(-c5ccc[n+](C)c5)c(I)c(-c5ccc(OC)cc5)n4[B-]3(F)F)C(c3ccccc3)=C2)cc1` yielded an IC50 at 3 h [1] of 11200 nM and an IC50 (HeLa [2]) of 214 nM.

With `COc1ccc(-c2c(I)c(-c3cccc[n+]3C)c3n2[B-](F)(F)[N+]2=C4C(=C(c5ccccc5)C2=N3)CCc2cc(OC)ccc24)cc1` the IC50 at 3 h [1] was 6100 nM and the IC50 (HeLa [2]) was 118 nM.

`COc1ccc(C2=[N+]3C(=Nc4c(-c5ccccc5)c(Br)c(-c5ccc(OC)cc5)n4[B-]3(F)F)C(c3ccccc3)=C2Br)cc1` gave an IC50 at 3 h [1] of 41700 nM and an IC50 (HeLa [2]) of 64.2 nM.

For `COc1ccc(C2=[N+]3C(=Nc4c(-c5ccc[n+](C)c5)c5c(n4[B-]3(F)F)-c3ccc(OC)cc3CC5)C(c3ccccc3)=C2I)cc1`, the IC50 at 3 h [1] was 2300 nM and the IC50 (HeLa [2]) was 41.8 nM.
